Data: patent US7667052B2 (Eisai R&D Management Co., Ltd., priority 2003, dated 2010)
Read-outs that look alike come from different tables or passages of the source.

Test system: transcription from VEGF promoter
Experiment: VEGF transcription-suppressing activity, VEGF-PLAP reporter in U251/1-8 cell
Format: cell-based
Conditions: Homo sapiens
Excerpt: In order to prepare reporter system reflecting transcription from VEGF promoter, VEGF promoter sequence was cloned, and inserted in secretory alkali phosphatase (PLAP) vector to construct reporter vector.
In order to obtain the promoter region of human VEGF, VEGF genome was cloned from phage library. PCR primers having the sequences described in Sequence Numbers 1 and 2 were designed based on VEGF cDNA (GenBank accession number: X62568) and a fragment having about 340 bp was obtained by carrying out PCR. Human genome phage library (Human genomic library, Clontech Co.) was screened using this as a probe to obtain pUC18-VEGFA containing about 5.4 kb of VEGF 5′ flanking region. The pUC18-VEGFA was cleaved by KpnI/NheI, VEGF promoter region of about 2.3 kb obtained was inserted in the multi cloning site KpnI/NheI of secretory alkali phosphatase (PLAP) vector (Goto et al, Mol. Pharmacol., 49, 860-873, 1996), and thus, VEGF-PLAP vector was constructed.
The above-mentioned VEGF-PLAP vector was introduced in the U251 cell cultured in the DULBECCO-modified eagle medium (DMEM; manufactured by SIGMA Co., Ltd.) containing 10% fetal calf serum, and cultured in the presence of 1 mg/ml G418 (Merck Co.) to establish G418 resistant stable clone (U251/1-8 cell).
It was confirmed that U251/1-8 cell secreted PLAP under low oxygen (2% O2 incubator) in the same manner as in the report (Cell. Mol. Biol. Res. 40, 35-39, 1994) and was a reporter system reflecting the transcription from VEGF promoter. The screening of the compound suppressing VEGF production which was induced by low oxygen stimulation was carried out below using the clone.
In order to remove the influence of alkaline phosphates in serum, U251/1-8 cell was rinsed twice with the adequate amount of PBS (Phosphate buffered saline), diluted in the DMEM medium containing 10% of serum in which alkaline phosphates was inactivated by the treatment of 60° C. for 20 min., and dispensed in 96-well plates by 4×10^4 cells/180 μl.
After culturing at 37° C. overnight in a CO2 incubator (5% CO2), 20 μL of the above-mentioned incubation solution containing the test compound diluted with 3-fold succession was added, and then they were incubated in a low oxygen ([…]) incubator for 18 hours. With respect to the PLAP activity in the culture supernatants, 10 μl of the supernatants was added to 50 μl of 0.28 M Na2CO3—NaHCO3 buffer solution (pH 10.0, 8.0 mM MgSO4), and finally 50 μl of alkaline phosphatase substrate (LUMISTEIN, Genomescience Co.) was added. After reacting for one hour, the alkaline phosphatase activity of the PLAP was measured by detecting the chemical luminescence by a micro plate reader (Perkin-Elmer Co.).
The PLAP activity under usual oxygen was set as 0%, the PLAP activity of cell which was treated under low oxygen was set as 100%, and the concentration suppressing the PLAP activity by 50% was set as the IC50 value of PLAP.

[1] = U-251, U251/1-8 cell, PLAP activity, low oxygen 18 hours, read-out: IC50 values of VEGF transcription-suppressing activity (range given)

SMILES | IC50 [1] [nM] | also measured
CCC(OC(N)=O)C(C)C1OC1CC(C)/C=C/C=C(\C)C1OC(=O)CC(OC(N)=O)CCC(C)(O)C(OC(C)=O)/C=C/C1C (stereo not shown) [B33-1, (8E,12E,14E)-7-Acetoxy-3,21-dicarbamoyloxy-6-hydroxy-6,10,12,16,20-pentamethyl-18,19-epoxytricosa-8,12,14-trien-11-olide] | 0.5 to 100 | –
CCC(OC(C)=O)C(C)C1OC1CC(C)/C=C/C=C(\C)C1OC(=O)CC(O)CCC(C)(O)C(OC(C)=O)/C=C/C1C (stereo not shown) [B20-2, (8E,12E,14E)-7,21-diacetoxy-3,6-dihydroxy-6,10,12,16,20-pentamethyl-18,19-epoxytricosa-8,12,14-trien-11-olide] | 0.5 to 100 | IC50 (U-251, U251/1-8 cell, PLAP activity, low oxygen 18 hours, read-out: VEGF transcription suppressing activity (IC50: nM)): 1.6 nM
CCC(O)C(C)C1OC1CC(C)/C=C/C=C(\C)C1OC(=O)CC(O)CCC(C)(O)C(OC(=O)NCCN2CCCCC2)/C=C/C1C (stereo not shown) [B63, (8E,12E,14E)-3,6,21-Trihydroxy-6,10,12,16,20-pentamethyl-7-N-(2-(piperidin-1-yl)ethyl)carbamoyloxy-18,19-epoxytricosa-8,12,14-trien-11-olide] | 0.5 to 100 | –
CCC(OC(=O)c1cccnc1)C(C)C1OC1CC(C)/C=C/C=C(\C)C1OC(=O)CC(O)CCC(C)(O)C(OC(C)=O)/C=C/C1C (stereo not shown) [B29, (8E,12E,14E)-7-Acetoxy-3-6-dihydroxy-6,10,12,16,20-pentamethyl-21-nicotinoxy-18,19-epoxytricosa-8,12,14-trien-11-olide] | 0.5 to 100 | –
CCC(OC(C)=O)C(C)C1OC1CC(C)/C=C/C=C(\C)C1OC(=O)/C=C\CCC(C)(O)C(OC(C)=O)/C=C/C1C (stereo not shown) [B43-1, (2Z,8E,12E,14E)-7,21-Diacetoxy-6-hydroxy-6,10,12,16,20-pentamethyl-18,19-epoxytricosa-8,12,14-trien-11-olide] | 0.5 to 100 | –
CCC(O)C(C)C(O)C(Cl)CC(C)/C=C/C=C(\C)C1OC(=O)CC(O)CCC(C)(O)C(OC(C)=O)/C=C/C1C (stereo not shown) [B1-2, (8E,12E,14E)-7-acetoxy-18-chloro-3,6,19,21-tetrahydroxy-6,10,12,16,20-pentamethyltricosa-8,12,14-trien-11-olide] | 0.5 to 100 | –
CCC(O)C(C)C(OC(C)=O)C(Cl)CC(C)/C=C/C=C(\C)C1OC(=O)CC(OC(C)=O)CCC(C)(O)C(OC(C)=O)/C=C/C1C (stereo not shown) [B21-3, (8E,12E,14E)-3,7,19-triacetoxy-18-chloro-6,21-dihydroxy-6,10,12,16,20-pentamethyltricosa-8,12,14-trien-11-olide] | 0.5 to 100 | –
CCC(O)C(C)C1OC1CC(C)/C=C/C=C(\C)C1OC(=O)CC(O)CCC(C)(O)C(OC(=O)NC2CCN(C)CC2)/C=C/C1C (stereo not shown) [B79, (8E,12E,14E)-3,6,21-Trihydroxy-6,10,12,16,20-pentamethyl-7-N-(1-methylpiperidin-4-yl)carbamoyloxy-18,19-epoxytricosa-8,12,14-trien-11-olide] | 0.5 to 100 | –
CCC(O)C(C)C1OC1CC(C)/C=C/C=C(\C)C1OC(=O)CC(O)CCC(C)(O)C(OC(=O)NCCN(C)C)/C=C/C1C (stereo not shown) [B54, (8E,12E,14E)-7-(N-(2-Dimethylamino)ethyl)carbamoyloxy-3,6,21-trihydroxy-6,10,12,16,20-pentamethyl-18,19-epoxytricosa-8,12,14-trien-11-olide] | 0.5 to 100 | –
CCC(O)C(C)C(Cl)C(O)CC(C)/C=C/C=C(\C)C1OC(=O)CC(O)CCC(C)(O)C(OC(C)=O)/C=C/C1C (stereo not shown) [B1-1, (8E,12E,14E)-7-Acetoxy-19-chloro-3,6,18,21-tetrahydroxy-6,10,12,16,20-pentamethyltricosa-8,12,14-trien-11-olide] | 0.5 to 100 | –
CCC(O)C(C)C1OC1CC(C)/C=C/C=C(\C)C1OC(=O)CC(O)CCC(C)(O)C(OC(=O)N2CCOCC2)/C=C/C1C (stereo not shown) [B49, (8E,12E,14E)-3,6,21-Trihydroxy-6,10,12,16,20-pentamethyl-7-((morpholin-4-yl)carbonyl)oxy-18,19-epoxytricosa-8,12,14-trien-11-olide] | 0.5 to 100 | –
CC/C(=N\OC)C(C)C1OC1CC(C)/C=C/C=C(\C)C1OC(=O)CC(O)CCC(C)(O)C(OC(C)=O)/C=C/C1C (stereo not shown) [B74, (8E,12E,14E)-7-Acetoxy-3,6-dihydroxy-21-methoxyimino-6,10,12,16,20-pentamethyl-18,19-epoxytricosa-8,12,14-trien-11-olide] | 0.5 to 100 | –
CCOCC(=O)OCC(=O)OC1CCC(C)(O)C(OC(C)=O)/C=C/C(C)C(/C(C)=C/C=C/C(C)CC2OC2C(C)C(O)CC)OC(=O)C1 (stereo not shown) [B26] | 0.5 to 100 | –
CCC(O)C(C)C1OC1CC(C)/C=C/C=C(\C)C1OC(=O)CC(O)CCC(C)(O)C(OC(=O)N(C)C)/C=C/C1C (stereo not shown) [B46, (8E,12E,14E)-3,6,21-Trihydroxy-6,10,12,16,20-pentamethyl-7-N,N-dimethylcarbamoyloxy-18,19-epoxytricosa-8,12,14-trien-11-olide] | 0.5 to 100 | –
CCC(O)C(C)C1OC1CC(C)/C=C/C=C(\C)C1OC(=O)CC(O)CCC(C)(O)C(OC(=O)NCCOC)/C=C/C1C (stereo not shown) [B53, (8E,12E,14E)-3,6,21-Trihydroxy-7-(N-(2-methoxyethyl))carbamoyloxy-6,10,12,16,20-pentamethyl-18,19-epoxytricosa-8,12,14-trien-11-olide] | 0.5 to 100 | –
CCC(O)C(C)C1OC1CC(C)/C=C/C=C(\C)C1OC(=O)CC(O)CCC(C)(O)C(OC(=O)N2CCC(N3CCCCC3)CC2)/C=C/C1C (stereo not shown) [B77] | 0.5 to 100 | –
CCC(O)C(C)C1OC1CC(C)/C=C/C=C(\C)C1OC(=O)CC(O)CCC(C)(O)C(OC(=O)NCc2ccccn2)/C=C/C1C (stereo not shown) [B56, (8E,12E,14E)-3,6,21-Trihydroxy-6,10,12,16,20-pentamethyl-7-N-(2-pyridylmethyl)carbamoyloxy-18,19-epoxytricosa-8,12,14-trien-11-olide] | 0.5 to 100 | –
CCC(OC)C(C)C1OC1C(O)C(C)/C=C/C=C(\C)C1OC(=O)CC(O)CCC(C)(O)C(OC(C)=O)/C=C/C1C (stereo not shown) [B9, (8E,12E,14E)-7-Acetoxy-3,6,17-trihydroxy-21-methoxy-6,10,12,16,20-pentamethyl-18,19-epoxytricosa-8,12,14-trien-11-olide] | – | IC50 (U-251, 18 h, read-out: IC50 values of VEGF transcription-suppressing activity (range given)): 0.5 to 100 nM
CCC(O)C(C)C(I)C(O)CC(C)/C=C/C=C(\C)C1OC(=O)CC(O)CCC(C)(O)C(OC(C)=O)/C=C/C1C (stereo not shown) [B3-1, (8E,12E,14E)-7-Acetoxy-3,6,18,21-tetrahydroxy-19-iodo-6,10,12,16,20-pentamethyltricosa-8,12,14-trien-11-olide] | 0.5 to 100 | –
CCC(OC(C)=O)C(C)C(Br)C(CC(C)/C=C/C=C(\C)C1OC(=O)CC(O)CCC(C)(O)C(OC(C)=O)/C=C/C1C)OC(C)=O (stereo not shown) [B23-1, (8E,12E,14E)-7,18,21-Triacetoxy-19-bromo-3,6-dihydroxy-6,10,12,16,20-pentamethyltricosa-8,12,14-trien-11-olide] | 0.5 to 100 | –
CCC(OC(C)=O)C(C)C(O)C(Cl)CC(C)/C=C/C=C(\C)C1OC(=O)CC(O)CCC(C)(O)C(OC(C)=O)/C=C/C1C (stereo not shown) [B21-2, (8E,12E,14E)-7,21-diacetoxy-18-chloro-3,6,19-trihydroxy-6,10,12,16,20-pentamethyltricosa-8,12,14-trien-11-olide] | 0.5 to 100 | –
CCC(F)C(C)C1OC1CC(C)/C=C/C=C(\C)C1OC(=O)CC(O)CCC(C)(O)C(OC(C)=O)/C=C/C1C (stereo not shown) [B18-1, (8E,12E,14E)-7-Acetoxy-21-fluoro-3,6-dihydroxy-6,10,12,16,20-pentamethyl-18,19-epoxytricosa-8,12,14-trien-11-olide] | 0.5 to 100 | –
CCC(OS(C)(=O)=O)C(C)C1OC1CC(C)/C=C/C=C(\C)C1OC(=O)CC(O)CCC(C)(O)C(OC(C)=O)/C=C/C1C (stereo not shown) [B16-1, (8E,12E,14E)-7-Acetoxy-3,6-dihydroxy-21-methanesulfonyloxy-6,10,12,16,20-pentamethyl-18,19-epoxytricosa-8,12,14-trien-11-olide] | 0.5 to 100 | –
CCC(O)C(C)C1OC1CC(C)/C=C/C=C(\C)C1OC(=O)CC(O)CCC(C)(O)C(OC(=O)NC)/C=C/C1C (stereo not shown) [B45, (8E,12E,14E)-3,6,21-Trihydroxy-6,10,12,16,20-pentamethyl-7-N-methylcarbamoyloxy-18,19-epoxytricosa-8,12,14-trien-11-olide] | 0.5 to 100 | –
